Experiments:
[1] = system: Pseudomonas aeruginosa (ATCC 27853); test: MIC determination with or without C12(ω7)Kβ12 (OAK); type: cell-based; conditions: for MIC: Pseudomonas aeruginosa, ATCC27853, in presence of 10 μg/ml OAK (C12(ω7)Kβ12)
Procedure: Determination of Minimal Inhibitory Concentration (MIC) of Triafluocyl (Cayman Chemical, Item No. 15425) in presence of C12(ω7)Kβ12 (provided by Custom synthesis Biomers Germany) against Pseudomonas aeruginosa (ATCC 27853).
A single colony of Pseudomonas aeruginosa grown on a Tryptic Soy agar (TSA) plate is resuspended and cultured in Tryptic Soy Broth (TSB) medium overnight (O/N) in aerobic conditions (37° C. with 190 rpm shaking in New Brunswick Innova 4200 Incubator Shaker). Next day the resulting inoculum is diluted again at 1:100 in Mueller-Hinton broth (MHB) and then incubated in aerobic conditions for 1 h30 (OD=0.08-0.1) to reach an exponential phase in the grown curve. A resulting inoculum corresponding to around 5×10^5 colony forming unit (CFU)/ml, is further incubated in presence or absence of different concentrations (10 and 20 μg/ml) of Triafluocyl in 2% DMSO with or without C12(ω7)Kβ12 for 18 hr in aerobic conditions (37° C. with 190 rpm shaking in New Brunswick Innova 4200 Incubator Shaker). Growth of Pseudomonas aeruginosa in each condition depicted in FIG. 15A is evaluated by reading the OD of each culture at 600 nm (OD600) in a spectrophotometer (Fisher Scientific, cell density meter model 40).
Determination of Minimal Inhibitory Concentration (MIC) of Fluometacyl (prepared according to WO99/0514) in presence of C12(ω7)Kβ12 (provided by Biomers.net Germany) against Pseudomonas aeruginosa (ATCC 27853). The C12(ω7)Kβ12 was synthesized by solid-phase method as described by I. Radzishevsky in Antimicrobial Agents and Chemotherapy, May 2007 (1753-1759) (https://aac.asm.org/content/51/5/1753)
A single colony of Pseudomonas aeruginosa grown on a Tryptic Soy agar (TSA) plate is resuspended and cultured in Tryptic Soy Broth (TSB) medium overnight (O/N) in aerobic conditions (37° C. with 220 rpm shaking in New Brunswick Innova 4200 Incubator Shaker). Next day the resulting inoculum is diluted again at 1:100 in Mueller-Hinton broth (MHB) and then incubated in aerobic conditions for 1 h30 (OD=0.08-0.1) to reach an exponential phase in the grown curve. A resulting inoculum corresponding to around 5×10^5 colony forming unit (CFU)/ml, is further incubated in presence or absence of different concentrations (10 and 20 μg/ml) of Fluometacyl in 2% DMSO with or without C12(ω7)Kβ12 for 18 hr in aerobic conditions (37° C. with 190 rpm shaking in New Brunswick Innova 4200 Incubator Shaker). Growth of Pseudomonas aeruginosa in each condition depicted in FIG. 16A is evaluated by reading the Optical Density of each culture at 600 nm (OD600) in a spectrophotometer (Fisher Scientific, cell density meter model 40).

[2] = system: S. aureus MRSA (ATCC BAA-1556); test: Killing curve (CFU counting); type: cell-based, Staphylococcus aureus
Procedure: S. aureus MRSA (ATCC BAA-1556) was grown overnight in brain heart infusion (BHI) medium, diluted 1:100 in fresh BHI, and incubated aerobically at 37° C. until bacteria growth reached a logarithmic phase (OD600=0.25-0.3).
Triafluocyl (Cayman Chemical, Item No. 15425) (20 μg/ml), Vancomycin (Sigma, 4 μg/ml or 10 μg/ml), Minocycline (Sigma, 8 μg/ml) or a solvent (DMSO) were added to 5 ml of S. aureus MRSA suspensions.
Bacterial growth for S. aureus MRSA was measured after different time intervals by counting the colony-forming units after plating appropriate culture dilutions on BHI agar plates.
S. aureus MRSA (ATCC BAA-1556) was grown overnight in BHI medium, then a 1:100 inoculum was diluted in fresh BHI and incubated aerobically at 37° C. until bacteria growth reached a logarithmic phase (OD600=0.25-0.3). The culture was split into two and challenged with 38 μM Fluometacyl (=18.2 μg/ml) or DMSO (Ctrl). Bacterial growth was measured after different time intervals by counting the colony-forming units after plating appropriate culture dilutions on BHI agar plates. (N=2)

[3] = system: Escherichia coli (ATCC 8739); test: MIC determination with or without polymyxin B nonapeptide (PMBN); type: cell-based; conditions: for MIC: Escherichia coli, ATCC8739, in presence of 40 μg/ml PMBN; for inhibition of E. coli growth: taken alone, concentrations up to 15 μg/ml
Procedure: Determination of Minimal Inhibitory Concentration (MIC) and Minimal Bactericidal Concentration (MBC) of Triafluocyl (Cayman Chemical, Item No. 15425) in presence of polymyxin B nonapeptide (PMBN) (Sigma-Aldrich Merk, Item No. P2076) against Escherichia coli (ATCC 8739). […] A single colony grown on a Luria-Bertani Agar (LB) plate was resuspended and cultured in LB medium overnight (O/N) in aerobic conditions (37° C. with 220 rpm shaking), next day a 1:50 inoculum in Mueller-Hinton broth (MHB) is incubated in aerobic conditions for 1 h30 (OD=0.08-0.1) and an inoculum corresponding to 3×10^6 colony forming unit (CFU)/ml, is incubated in presence or absence of different concentrations of Triafluocyl in 1% DMSO with or without 40 μg/ml Polymyxin B nonapeptide (PMBN) for 18 hr in aerobic conditions (37° C. with 220 rpm shaking). Growth of Escherichia coli in 7 conditions depicted in FIG. 11 is evaluated by reading the OD of each culture at 600 nm (OD600) in a spectrophotometer (Victor 3-Perkin Elmer). Determination of Minimal Inhibitory Concentration (MIC) and Minimal Bactericidal Concentration (MBC) of Fluometacyl in presence of polymyxin B nonapeptide (PMBN) (Sigma-Aldrich Merk, Item No. P2076) against Escherichia coli (ATCC 8739). The Minimal Inhibitory Concentration (MIC) represents the concentration, in a liquid culture, at which there is no visible growth of bacteria (no pellet or cloudiness), i.e. ΔOD at 600 nm equal to zero wherein ΔOD is the difference between the resulting optical density (OD) with the molecule together with PMBN, and the optical density (OD) of the blank (blank is the medium alone). A single colony grown on a Luria-Bertani Agar (LB) plate is resuspended and cultured in LB medium overnight (O/N) in aerobic conditions (37° C. with 220 rpm shaking), next day a 1:50 inoculum in Mueller-Hinton broth (MHB) is incubated in aerobic conditions for 1 h30 (OD=0.08-0.1) and an inoculum corresponding to 3×10^6 colony forming unit (CFU)/ml is incubated in presence or absence of different concentrations of Fluometacyl in 1% DMSO (vehicle) with or without 40 μg/ml Polymyxin B nonapeptide (PMBN) for 18 hr in aerobic conditions (37° C. with 220 rpm shaking). Growth of bacteria in the 7 individual cultures (FIG. 12A) is evaluated by reading the OD of each culture at 600 nm (OD600) in a spectrophotometer (Victor 3-Perkin Elmer).

MIC [1] [µg/mL]	MIC [3] [µg/mL]	Compound	inhibition of P. aeruginosa growth ([1]; taken alone at a concentration of 20 μg/ml)	bactericidal activity against S. aureus MRSA (time-kill) ([2]; 38 μM (=18.2 μg/ml), FIG. 9)	inhibition of E. coli growth [3]	inhibition of P. aeruginosa growth ([1]; taken alone at a concentration of 10 μg/ml)	effect on S. aureus MRSA viable count after the first two hours ([2]; Triafluocyl 20 μg/ml, Vancomycin 10-fold MIC, Minocycline 8-fold MIC, FIG. 8A)
20	5	CCCSc1nc(N[C@@H]2C[C@H]2c2ccc(F)c(F)c2)c2nnn([C@@H]3C[C@H](O)[C@@H](O)[C@H]3O)c2n1 [Fluometacyl, (1S,2R,3S,4R)-4-[7-[[(1R,2S)-2-(3,4-Difluorophenyl)cyclopropyl]amino]-5-(propylthio)-3H-1,2,3-triazolo[4,5-d]pyrimidin-3-yl]-1,2,3-cyclopentanetriol]	unable to inhibit P. aeruginosa growth	bactericidal activity	unable to inhibit E. coli growth		
10	5	CCCSc1nc(N[C@@H]2C[C@H]2c2ccc(F)c(F)c2)c2nnn([C@@H]3C[C@H](OCCO)[C@@H](O)[C@H]3O)c2n1 [Triafluocyl, (1S,2S,3R,5S)-3-[7-[(1R,2S)-2-(3,4-difluorophenyl)cyclopropylamino]-5-(propylthio)-3H-[1,2,3]-triazolo[4,5-d]pyrimidin-3-yl]-5-(2-hydroxyethoxy)-1,2-cyclopentanediol]			unable to inhibit E. coli growth	unable to inhibit P. aeruginosa growth	decrease of S. aureus MRSA viable count

From patent publication US10905691B2, “Use of triazolo(4,5-d)pyrimidine derivatives for prevention and treatment of bacterial infection” (Universite de Liege, priority 2016, dated 2021)
